Assay results reported in PubChem BioAssay AID256 (DTP/NCI, 2004).
Several values for one entry are separate records, joined by “and”; a condition that tells them apart may be missing. Equal values may be shown once. Inconclusive results and toxic doses are left out. Rule for the calls: active = survival T/C of 150% or more; inactive = T/C below 125% in these data.

Test system: CD2F1 mice, L1210 leukemia ip, survival T/C
Test: NCI In Vivo Anticancer Drug Screen. Data for tumor model L1210 Leukemia (intraperitoneal) in CD2F1 (CDF1) mice
Details: higher = longer survival
Method in brief: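 Each value reflects a quotient of treated over vehicle control outcomes in mice with a transplanted tumor.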

[1] = endpoint: mean survival time, dose: 100.0 mg/kg/injection, schedule: Q01DX009 (ip), vehicle: saline with Tween-80
[2] = endpoint: mean survival time, dose: 200.0 mg/kg/injection, schedule: Q01DX009 (ip), vehicle: saline with Tween-80
[3] = endpoint: mean survival time, dose: 400.0 mg/kg/injection, schedule: Q01DX009 (ip), vehicle: saline with Tween-80
[4] = endpoint: mean survival time, dose: 100.0 mg/kg/injection, schedule: Q01DX001 (ip), vehicle: saline with Tween-80
[5] = endpoint: mean survival time, dose: 200.0 mg/kg/injection, schedule: Q01DX001 (ip), vehicle: saline with Tween-80
[6] = endpoint: mean survival time, dose: 400.0 mg/kg/injection, schedule: Q01DX001 (ip), vehicle: saline with Tween-80
[7] = endpoint: mean survival time, dose: 100.0 mg/kg/injection, schedule: Q04DX003 (ip), vehicle: saline with Tween-80
[8] = endpoint: mean survival time, dose: 200.0 mg/kg/injection, schedule: Q04DX003 (ip), vehicle: saline with Tween-80
[9] = endpoint: mean survival time, dose: 400.0 mg/kg/injection, schedule: Q04DX003 (ip), vehicle: saline with Tween-80

Measured: T/C

NC1CCCCC1N.Nc1c(N=Nc2ccc(-c3ccc(N=Nc4cc(S(=O)(=O)[O-])c5ccccc5c4N)cc3)cc2)cc(S(=O)(=O)[O-])c2ccccc12.[OH3+].[OH3+].[Pt+4]
inactive: endpoint: median survival time, dose: 3.12 mg/kg/injection, schedule: Q04DX003 (ip), vehicle: saline with Tween-80 108 % of control | endpoint: median survival time, dose: 6.25 mg/kg/injection, schedule: Q04DX003 (ip), vehicle: saline with Tween-80 100 % of control | endpoint: median survival time, dose: 12.5 mg/kg/injection, schedule: Q04DX003 (ip), vehicle: saline with Tween-80 102 % of control | endpoint: median survival time, dose: 25.0 mg/kg/injection, schedule: Q04DX003 (ip), vehicle: saline with Tween-80 98 % of control | endpoint: median survival time, dose: 50.0 mg/kg/injection, schedule: Q04DX003 (ip), vehicle: saline with Tween-80 106 % of control | endpoint: median survival time, dose: 100.0 mg/kg/injection, schedule: Q04DX003 (ip), vehicle: saline with Tween-80 97 % of control | endpoint: median survival time, dose: 200.0 mg/kg/injection, schedule: Q04DX003 (ip), vehicle: saline with Tween-80 100 % of control

CCOC(=O)c1c[nH]c2ccc3c(nc(C)n3C)c2c1=O
inactive: endpoint: median survival time, dose: 25.0 mg/kg/injection, schedule: Q01DX005 (ip), vehicle: Klucel (hydroxypropylcellulose) (HPC) 98 % of control | endpoint: median survival time, dose: 50.0 mg/kg/injection, schedule: Q01DX005 (ip), vehicle: Klucel (hydroxypropylcellulose) (HPC) 100 % of control | endpoint: median survival time, dose: 100.0 mg/kg/injection, schedule: Q01DX005 (ip), vehicle: Klucel (hydroxypropylcellulose) (HPC) 108 % of control | endpoint: median survival time, dose: 200.0 mg/kg/injection, schedule: Q01DX005 (ip), vehicle: Klucel (hydroxypropylcellulose) (HPC) 112 % of control

Cc1ccc(C(=O)Nc2ccccc2I)cc1
inactive: [1] 97 % of control | [2] 101 % of control | [3] 97 % of control

O=C(Oc1ccc(OC(=O)c2ccccc2)c([N+](=O)[O-])c1)c1ccccc1
inactive: endpoint: mean survival time, dose: 75.0 mg/kg/injection, schedule: Q01DX001 (ip), vehicle: saline 89 % of control | endpoint: mean survival time, dose: 150.0 mg/kg/injection, schedule: Q01DX001 (ip), vehicle: saline 98 % of control | endpoint: mean survival time, dose: 300.0 mg/kg/injection, schedule: Q01DX001 (ip), vehicle: saline 98 % of control

c1ccc(C2=NNC(c3ccccc3)=NN2)cc1
inactive: endpoint: mean survival time, dose: 100.0 mg/kg/injection, schedule: Q01DX001 (ip), vehicle: other 105 % of control | [4] 101 % of control | endpoint: mean survival time, dose: 200.0 mg/kg/injection, schedule: Q01DX001 (ip), vehicle: other 94 % of control | [5] 97 % of control | endpoint: mean survival time, dose: 400.0 mg/kg/injection, schedule: Q01DX001 (ip), vehicle: other 103 % of control | [6] 103 % of control

Nc1c(Cl)c(Cl)cc(Cl)c1Cl
inactive: [7] 97 % of control | [8] 102 % of control | [9] 92 % of control

Cn1c(=O)c2c(nc(-c3ccccc3)n2O)n(C)c1=O
inactive: endpoint: mean survival time, dose: 12.5 mg/kg/injection, schedule: Q01DX005 (ip), vehicle: other 97 % of control | endpoint: mean survival time, dose: 25.0 mg/kg/injection, schedule: Q01DX005 (ip), vehicle: other 105 % of control | endpoint: mean survival time, dose: 50.0 mg/kg/injection, schedule: Q01DX005 (ip), vehicle: other 92 % of control | endpoint: mean survival time, dose: 100.0 mg/kg/injection, schedule: Q01DX005 (ip), vehicle: other 97 % of control

C=CCC1(C)C(OC(C)=O)/C(=C\c2ccco2)CC2(C)c3cc(OC)ccc3CCC21 (configuration not stated)
inactive: endpoint: mean survival time, dose: 100.0 mg/kg/injection, schedule: Q01DX001 (ip), vehicle: saline 101 % of control | endpoint: mean survival time, dose: 200.0 mg/kg/injection, schedule: Q01DX001 (ip), vehicle: saline 96 % of control | endpoint: mean survival time, dose: 400.0 mg/kg/injection, schedule: Q01DX001 (ip), vehicle: saline 96 % of control

COC12CCCC1S(=O)(=O)C2 (configuration not stated)
inactive: endpoint: mean survival time, dose: 25.0 mg/kg/injection, schedule: Q04DX003 (ip), vehicle: saline 101 % of control | endpoint: mean survival time, dose: 50.0 mg/kg/injection, schedule: Q04DX003 (ip), vehicle: saline 108 % of control | endpoint: mean survival time, dose: 100.0 mg/kg/injection, schedule: Q04DX003 (ip), vehicle: saline 95 % of control

O=C1OCCN1S(=O)(=O)c1ccc(Cl)cc1
inactive: [1] 95 % of control | [7] 104 % of control | [2] 93 % of control | [8] 102 % of control | [3] 95 % of control | [9] 98 % of control

N#CCC(C#N)C1C=CCC1 (configuration not stated)
inactive: endpoint: mean survival time, dose: 3.13 mg/kg/injection, schedule: Q04DX003 (ip), vehicle: saline 98 % of control | endpoint: mean survival time, dose: 6.25 mg/kg/injection, schedule: Q04DX003 (ip), vehicle: saline 101 % of control

O=C(O)C1CC[N-]CC1.O=C(O)C1CC[N-]CC1.[Cl][Pt+2][Cl]
inactive: endpoint: mean survival time, dose: 50.0 mg/kg/injection, schedule: Q01DX001 (ip), vehicle: saline with Tween-80 110 % of control | [7] 107 % of control | [5] 110 % of control | [2] 97 % of control

COC(=O)c1ccc(OC)c2nc3c(C=O)c(OC)c(C)c(OC)c3nc12
inactive: [4] 94 % of control | endpoint: mean survival time, dose: 100.0 mg/kg/injection, schedule: Q04DX002 (ip), vehicle: saline with Tween-80 98 % of control | [5] 95 % of control | endpoint: mean survival time, dose: 200.0 mg/kg/injection, schedule: Q04DX002 (ip), vehicle: saline with Tween-80 106 % of control | [6] 103 % of control | endpoint: mean survival time, dose: 400.0 mg/kg/injection, schedule: Q04DX002 (ip), vehicle: saline with Tween-80 106 % of control

Cc1ccc(S(=O)(=O)N/N=C2\CC3CCC2C3)cc1 (configuration not stated)
inactive: [1] 90 % of control and 105 % of control | [2] 96 % of control and 100 % of control | [3] 93 % of control and 96 % of control

Cc1cc(C)c(C(Cl)(Cl)Cl)c(C)c1Cl
inactive: endpoint: mean survival time, dose: 25.0 mg/kg/injection, schedule: Q01DX009 (ip), vehicle: saline with Tween-80 108 % of control | endpoint: mean survival time, dose: 50.0 mg/kg/injection, schedule: Q01DX009 (ip), vehicle: saline with Tween-80 111 % of control | [4] 107 % of control

C1=CC2OC1c1cc3ccccc3cc12
inactive: endpoint: mean survival time, dose: 100.0 mg/kg/injection, schedule: Q04DX003 (ip), vehicle: other 121 % of control | endpoint: mean survival time, dose: 200.0 mg/kg/injection, schedule: Q04DX003 (ip), vehicle: other 105 % of control

O=c1cc(NCCCc2ccccc2)[nH]c(=O)[nH]1
inactive: [4] 100 % of control | [5] 92 % of control | [6] 93 % of control

O=C1CC2=C(CC(O)=CC=C2)C(=O)O1
inactive: endpoint: mean survival time, dose: 100.0 mg/kg/injection, schedule: Q01DX009 (ip), vehicle: saline 101 % of control | endpoint: mean survival time, dose: 200.0 mg/kg/injection, schedule: Q01DX009 (ip), vehicle: saline 93 % of control
